Test results as given in paper PMC3482300 (Nature, 2012).

How the values were obtained:
NTS1-GW5 = NTS1-GW5 (Rattus norvegicus, UniProt P20789, A86L/E166A/F358A/G215A/L310A/V360A); assay: Competition of [3H]NT binding by SR48692, NTS1-GW5
NTS1 [1] = conditions: cited from earlier work
NTS1 [2] = conditions: cited from earlier work; remark: listed apart in the source

Sequence of NTS1-GW5 (P20789 43-396 A86L/E166A/G215A/L310A/F358A/V360A): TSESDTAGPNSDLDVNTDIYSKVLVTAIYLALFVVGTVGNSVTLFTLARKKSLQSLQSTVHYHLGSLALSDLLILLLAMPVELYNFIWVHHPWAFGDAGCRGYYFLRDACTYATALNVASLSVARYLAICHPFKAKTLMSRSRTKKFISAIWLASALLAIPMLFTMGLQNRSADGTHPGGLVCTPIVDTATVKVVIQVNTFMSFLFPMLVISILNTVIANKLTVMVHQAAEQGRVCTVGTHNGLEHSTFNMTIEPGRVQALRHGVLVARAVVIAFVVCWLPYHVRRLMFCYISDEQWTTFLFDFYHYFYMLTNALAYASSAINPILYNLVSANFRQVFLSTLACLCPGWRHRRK

COc1cccc(OC)c1-c1cc(C(=O)NC2(C(=O)O)C3CC4CC(C3)CC2C4)nn1-c1ccnc2cc(Cl)ccc12 (stereo not shown) [SR48692]
apparent affinity for SR48692 compared to wild-type (NTS1-GW5): lower

Arg-Arg-Pro-Tyr-Ile-Leu [NT8-13]
efficacy compared to full-length NT (NTS1 [1]): higher potency and efficacy | potency compared to full-length NT (NTS1 [1]): higher potency

KIPYIL [neuromedin N]
binding to NTS1 (NTS1 [2]): binds
